Assay results published in EP4768498A1, “PEPTIDE, DROPLET FORMING KIT, DROPLET FORMING METHOD, HYDROPHOBIC SUBSTANCE CONCENTRATION METHOD, AND PROTEIN FOLDING METHOD” (National University Corporation Tokyo University Of …, priority 2023, dated 2026).
Positions of bridges follow the written chain, without caps; N, C: chain ends. No end group written: not given here.

How the values were obtained:
[1] = Transmittance measurement (transition temperature); assay type: physicochemical; settings: 2 wt% solution, 50 mM Tris-HCl (pH: 7.5) containing 0.3 M sodium chloride, absorbance at 600 nm
Method: FF-ELP4 or LL-ELP4 was dissolved in 50 mM Tris-HCl (pH: 7.5) containing 0.3 M sodium chloride and incubated at 60°C. LL-ELP4 was dissolved in 50 mM Tris-HCl (pH: 7.5) to a final concentration of 2 wt%. Since FF-ELP4 could not be dissolved to a final concentration of 2 wt%, it was dissolved in 50 mM Tris-HCl (pH: 7.5) to a final concentration of 1 wt%. Transmittance measurement was carried out using an ultraviolet-visible spectrophotometer V-650 manufactured by JASCO Corporation (Tokyo, Japan). For the samples prepared as described above, absorbance at a wavelength of 600 nm was monitored while changing the temperature. A quartz cell (optical path length: 10 mm) of Sansyo Co., Ltd. was used as a measurement cell. […] LL-ELP4-SS was dissolved in 50 mM Tris-HCl (pH: 7.5) containing 0.3 M sodium chloride and incubated at 60°C. LL-ELP4-SS was dissolved in 50 mM Tris-HCl (pH: 7.5) to a final concentration of 2 wt%. Transmittance measurement was carried out using an ultraviolet-visible spectrophotometer V-650 manufactured by JASCO Corporation (Tokyo, Japan). For the samples prepared as described above, absorbance at a wavelength of 600 nm was monitored while changing the temperature. A quartz cell (optical path length: 10 mm) of Sansyo Co., Ltd. was used as a measurement cell.

[2] = Phase-contrast microscope observation of droplets; assay type: physicochemical; settings: 60°C
Method: Phase-contrast microscope observation was carried out using IX-73 manufactured by Olympus Corporation (Tokyo, Japan). A sample was dropped onto a slide glass, and a cover glass was placed over the sample through a silicone spacer having a thickness of 0.2 mm. The sample was observed while incubating at 60°C. The samples were prepared by dissolving FF-ELP4 or LL-ELP4 in 50 mM Tris-HCl (pH: 7.5) containing 0.3 M sodium chloride. FF-ELP4 was dissolved to a final concentration of 1 wt%. LL-ELP4 was dissolved to a final concentration of 5 wt%.
Phase-contrast microscope observation was carried out using IX-73 manufactured by Olympus Corporation (Tokyo, Japan). A sample in which a cover glass was placed on the peptide solution through a silicone spacer having a thickness of 0.2 mm on a slide glass was observed while incubating at 60°C. The peptide solution was prepared by dissolving LL-ELP4 to 2 wt% and LL-ELP4-SS to 0.7 mM (0.16 wt%) in 50 mM Tris-HCl (pH: 7.5) containing 0.3 M sodium chloride.
Phase-contrast microscope observation was carried out using IX-73 manufactured by Olympus Corporation (Tokyo, Japan). A sample in which a cover glass was placed on the peptide solution through a silicone spacer having a thickness of 0.2 mm on a slide glass was observed while incubating at 60°C. The peptide solution was prepared by dissolving LL-ELP4-SS to 2 wt% in 50 mM Tris-HCl (pH: 7.5) containing 0.3 M sodium chloride.
(§1) A folding test of denatured BPTI was performed in the same manner as in <Folding test of denatured BPTI: LL-ELP4/LL-ELP4-SS mixed solution> described above, except that LL-ELP4-SS was used alone instead of the combination of LL-ELP4 and LL-ELP4-SS. The final concentration of LL-ELP4-SS in the test solution was 0.16 wt%.

[3] = test system: Reduced and denatured BPTI; assay: Evaluation of incorporation of denatured BPTI into droplets; design: species or system Bovine; settings: for Reduced and denatured BPTI Inside droplets / Reduced and denatured BPTI Outside droplets: BPTI 30 µM, 60°C overnight
Method: (§2) FF-ELP4 or LL-ELP4 was dissolved in 50 mM Tris-HCl (pH: 7.5) containing 0.3 M sodium chloride, and pre-incubated at 60°C for 1 minute. […] The mixture was incubated at 60°C overnight, centrifuged (8,000 rpm, 25°C, 30 seconds) using a high-spin mini centrifuge HSC-12000 manufactured by Taiyo Corporation (Osaka, Japan), and quickly separated into a supernatant and a precipitate (droplets). 400 µL of a 1 M HCl aqueous solution was added to each of the supernatant and the precipitate to stop the reaction. For each of the supernatant and the precipitate, the reduced and denatured BPTI or the native BPTI was quantified by HPLC analysis. The analysis was performed by reverse-phase high-performance liquid chromatography (RP-HPLC) using a Primaide HPLC system (1410 UV detector, 1310 column oven, 1110 pump) manufactured by Hitachi High-Tech Corporation (Tokyo, Japan) and a TSKgel Protein C4-300 column (4.6 mmφ × 150 mm) manufactured by Tosoh Corporation (Tokyo, Japan) at a flow rate of 1.0 mL·min^-1 (Solvent A: water containing 0.05% TFA, Solvent B: acetonitrile containing 0.05% TFA; ratio of Solvent A: linear gradient of 95% at 0 min, 80% at 15 min, and 30% at 115 min).

Native BPTI = assay: Evaluation of incorporation of native BPTI into droplets; design: species or system Bovine; settings: BPTI 30 µM, 60°C overnight
Method: as §2

[4] = test system: Reduced and denatured BPTI; assay: Folding test of denatured BPTI; assay type: biochemical, Bovine; settings: LL-ELP4-SS alone 0.16 wt%, no droplets, no centrifugation, BPTI 30 µM, 60°C
Method: LL-ELP4 and LL-ELP4-SS were dissolved in a buffer (50 mM Tris-HCl, 0.3 M NaCl, pH: 7.5) and pre-incubated at 60°C for 3 minutes. […] The mixture was incubated at 60°C, and when 1 minute, 10 minutes, and 60 minutes had elapsed, it was centrifuged (10,000 rpm, 25°C, 10 seconds) using a high-spin mini centrifuge HSC-12000 manufactured by Taiyo Corporation (Osaka, Japan) and quickly separated into a supernatant and a precipitate. To both the supernatant and the precipitate, 1 M aqueous HCl was added to quench the reaction. The samples were analyzed by reverse-phase high-performance liquid chromatography (RP-HPLC) using a Primaide HPLC system (1410 UV detector, 1310 column oven, and 1110 pump) manufactured by Hitachi, Ltd. (Tokyo, Japan) and a TSKgel Protein C4-300 column (4.6 mm i.d. × 150 mm) manufactured by Tosoh Corporation (Tokyo, Japan) at a flow rate of 1.0 mL min-1 (Solvent A: water containing 0.05% TFA; Solvent B: acetonitrile containing 0.05% TFA; linear gradient of Solvent A: 95% at 0 min, 80% at 15 min, and 30% at 115 min).
as §1

Substance | transition temperature [1] [°C] | droplets observed ([2]; 5 wt% solution) | Reduced and denatured BPTI Inside droplets ([3]; peptide 2 wt%) [%] | Reduced and denatured BPTI Outside droplets ([3]; peptide 2 wt%) [%] | Reduced and denatured BPTI Inside droplets ([3]; peptide 5 wt%) [%] | Reduced and denatured BPTI Outside droplets ([3]; peptide 5 wt%) [%] | aggregation of reduced and denatured BPTI recovered from the droplets ([3]; peptide 5 wt%, redispersed in water) | Native BPTI Inside droplets (Native BPTI; peptide 2 wt%) [%] | Native BPTI Outside droplets (Native BPTI; peptide 2 wt%) [%] | Native BPTI Inside droplets (Native BPTI; peptide 5 wt%) [%] | Native BPTI Outside droplets (Native BPTI; peptide 5 wt%) [%] | droplet formation ([2]; 0.16 wt% solution in the folding test) | droplets observed ([2]; 2 wt% solution) | added reduced and denatured BPTI detected as native structural BPTI [4] [%]
Ac-LLVPGVGVPGVGVPGVGVPGVG-NH2 [LL-ELP4, LL-(VPGVG)4] | 53 | droplets of appropriate size were observed | 91 | 9 | > 99 | < 1 | aggregation was suppressed | 3 | 97 | 7 | 93 | – | – | –
LL-(VPGVG)2-CGHC-(VPGVG)2 (LLVPGVGVPGVGCGHCVPGVGVPGVG; disulfide 13-16 (inferred)) [LL-ELP4-SS] | 48 | – | – | – | – | – | – | – | – | – | – | droplets were not formed | Droplets of appropriate size were observed | ≥ 99
